Results on two compounds are retold here after patent US20240300943A1, “NOVEL SALTS OF HETEROCYCLIC COMPOUND AS PROTEIN KINASE INHIBITOR AND USES THEREOF” (HK INNO.N CORPORATION, priority 2021, published 2024).

One assay relates to JAK1, 2. In words: In vitro cell assay, JAK1, 2 (STAT phosphorylation ELISA). The conditions noted are these: read-out: IC50, Cell Biology JAK1, 2. In kind it is cell-based. The method, then:
UT-7/EPO cell is an erythroleukemic cell line which expresses an EPO receptor, and is frequently used in many previous studies as a model to assess EPO-induced STAT5 phosphorylation mediated by JAK1 and JAK2 activity. Accordingly, in order to evaluate the activity of JAK1 and JAK2, UT-7/EPO cells were prepared.
The test material was dissolved in DMSO, prepared at 10 mM, divided by 20 μL each, and stored at −20° C.
• EPO: 2000 U/0.5 mL of stock was divided by 50 μL each and stored under refrigeration. • IL-2: 200 μg/ml of stock was prepared, divided by 5 μL each, and stored, and then treated at 2 ng/ml. (IL-2 1 μg/ml=13000 U/ml) • IFN-alphaB2: […] of stock was diluted and used, and then treated to reach 30000 U/ml.
• UT-7/EPO cell assay: MEM-alpha (Gibco, cat #12561-056) was prepared to contain 5% FBS and 1% P/S before use. • NK-92 cell assay: A preparation was made to contain HBSS, 1% FBS and 1% P/S before use. • U2OS cell assay: A preparation was made to contain HBSS, 1% FBS and 1% P/S before use.
The cultured cells were centrifuged (1,000 rpm, 5 minutes) and washed with PBS. The size of cell lines and appropriate reaction concentration thereof were set and the cell lines were seeded in a 96-well plate at 1×10^5 to 10^6 cells/well (50 μL/well). […]

In assay [1] the test system is HDM-induced animal model (NC/Nga mice). The assay can be described thus: HDM-induced atopic dermatitis model (topical). The format is in vivo. The procedure:
After the back of the ears and neck of the NC/Nga mice was shaved with a razor, a proper amount of depilatory was applied and depilation was performed. After the depilatory was wiped out, about 100 mg of an atopic dermatitis-inducing reagent (Biostir, Japan) was uniformly applied to the back of the ears and neck using a micro pipette tip.
After hair removal was performed using a razor as needed, 150 μL of 4% SDS aqueous solution was uniformly applied to the back of the ears and neck using a micro pipette. After drying with cold air using a dryer, the solution was naturally dried for about two to three hours. About 100 mg of the AD-inducing reagent was uniformly applied to the back of the ears and neck using a micro pipette tip. All treatments were performed 11 times twice a week for a total of six weeks.
As a test material, an appropriate amount of phosphate in Compound 1 obtained according to Example 3 was weighed and then prepared by dissolving in a local vehicle (acetone:DMSO-7:1 v/v). At the time of preparation and administration, the test material was maintained in a light-shielding state, and was prepared and used every three days under the conditions of light-shielding refrigeration.
The administration of the test material was started from the time when the atopic score reached 2.1 to 2.3 points, and was directly applied to the center of the skin twice/day until the day of autopsy from the start date of administration of the test material (Day 0) for three weeks.
The AD-inducing material was applied and sensitized 24 hours before the autopsy, and the drug was administered and applied one hour before the autopsy. […]
To evaluate atopic dermatitis, evaluation of a skin clinical index (Matsuda et al., 1997) was performed from week 0 of the onset of atopic dermatitis. […] After that, the sum of the scores for each item was evaluated as a final grade.
An IgE concentration in blood was analyzed with serum obtained by centrifuging the blood collected on the day of autopsy, and IL-1B, IL-4, IL-13, TNF-α, IL-6, and IL-31 were analyzed using the extracted skin. […]

Consider `C[C@@H]1CN(C(=O)CC#N)CC=C1c1cc(NC(=O)C2CC2)nc2[nH]ccc12` [Compound 1, (S)—N-(4-(1-(2-cyanoacetyl)-3-methyl-1,2,3,6-tetrahydropyridin-4-yl)-1H-pyrrolo[2,3-b]pyridin-6-yl)cyclopropanecarboxamide], for which the IC50 with JAK1, 2 stood at 18 nM. Besides, in assay [1] (skin, FIG. 30), the Atopic dermatitis-related cytokines entry is reported as “decrease in atopic dermatitis-related cytokines”. Also, the “Serum IgE levels” value in assay [1] (twice/day for three weeks, FIG. 29) is listed as “decreased compared to the control group”.

`C[C@@H]1CN(C(=O)CC#N)CC=C1c1cc(NC(=O)C2CC2)nc2[nH]ccc12` [Example 3, (S)—N-(4-(1-(2-cyanoacetyl)-3-methyl-1,2,3,6-tetrahydropyridin-4-yl)-1H-pyrrolo[2,3-b]pyridin-6-yl)cyclopropanecarboxamide]: the “Skin severity scores (clinical atopic dermatitis score)” value in assay [1] (twice/day for three weeks, all dosed groups, FIG. 28) is on record as “significantly reduced”.
